Here are results for 14 compounds from patent US11046682B2, “Fused heterocyclic derivatives, their preparation methods thereof and medical uses thereof” (Beijing Innocare Pharma Tech Co., Ltd., priority 2016, dated 2021).

The target of assay [1] is indoleamine 2,3-dioxygenase (IDO) in Hela cells (Homo sapiens (Human), UniProt P14902). In words: IDO intracellular activity inhibition testing in Hela cells induced by IFN-γ (Ehrlich method). It counts as cell-based. Particulars: 24 hours, OD490, 8 concentration points. Here is the method:
IDO Intracellular Activity Inhibition Testing
The effects of the compounds of the invention on the activity of indoleamine 2,3-dioxygenase (IDO) in Hela cells induced by IFN-γ were evaluated by the Ehrlich method.
The experimental principle is summarized as follows: IDO expression is low in Hela cells under no induction, but a certain concentration of IFN-γ can induces Hela cells to express IDO which catalyzes the conversion of tryptophan to N-formyl kynurenine, which in turn is hydrolyzed by trichloroacetic acid to give kynurenine. Kynurenine then reacts with the Ehrlich reagent to give a color enabling detection of the IDO activity. The absorbance at 490 nm (OD490) is directly proportional to the IDO activity.
A compound was dissolved in DMSO (Sigma, Cat. No. D5879) and diluted to 5 mM, then serially diluted 3-fold with DMSO to a minimum concentration of 2.29 μM, and each concentration point was diluted 50-fold with FBS-free DMEM medium (ThermoFisher, Cat. No. 11995073). If a compound's IC50 value is very low, the initial concentration of the compound was lowered.
Hela cells (ATCC, Cat. No. CCL-2) were cultured in DMEM complete medium containing 10% FBS (GBICO, Cat. No. 10099-141) and 100 U/mL streptomycin mixture (ThermoFisher, Cat. No. 15140122). When covering the culture vessel 80-90%, the cells were digested with 0.25% trypsin (containing EDTA) (ThermoFisher, Cat. No. 25200056) and planted in 96-well plates (Corning, Cat. No. 3599), 20000 cells per well (80 μL of DMEM medium). The plates were then incubated in a 37° C., 5% CO2 incubator overnight (18-20 hours).
After overnight, 10 μL of DMEM-diluted compound and 10 μL of 500 ng/mL of INF-γ were added to each well, and gently mixed and the 96-well plates were placed in a 37° C., 5% CO2 incubator for further culturing. After 24 hours, they were removed and centrifuged at room temperature 2000×g for 5 min, and then the supernatants were transferred to reaction plates (Sigma, Cat. No. CLS3695). One-twentieth of trichloroacetic acid (Sigma, Cat. No. T9159) was added and incubated at 60° C. After 30 min, the reaction plates were centrifuged at room temperature 2000×g for 5 min. The supernatants were transferred to clean reaction plates, an equal volume of the Ehrlich reagent was added, mixed, and incubated at room temperature. After 15 min, OD490 of each well was measured.
In this experiment, OD490 without IFN-γ but with DMEM medium replacement was referred as OD490100% inhibition. OD490 with IFN-γ and 0.2% DMSO was referred as OD4900% inhibition. The percentage of inhibition on the IDO1 activity in Hela cells by a compound was calculated using the following formula: Inhibition %=100−100*(OD490compound−OD490100% inhibition)/(OD4900% inhibition−OD490100% inhibition)
(§1) Where Y is the percentage of inhibition, Bottom is the bottom platform value of the S-curve, Top is the top platform value of the S-curve, X is the logarithm of the concentration of the test compound, and slope factor is the slope coefficient of the curve.

Assay [2] concerns the target full-length human recombinant IDO1 protein (Homo sapiens (Human), UniProt P14902). In words: IDO enzyme activity inhibition testing (Ehrlich method). It counts as biochemical. Particulars: OD490, 10 concentration points. The method, then: IDO Enzyme Activity Inhibition Testing
The effects of the compounds of the invention on the activity of indoleamine 2,3-dioxygenase (IDO) were evaluated by the Ehrlich method.
The experimental principle is summarized as follows: IDO1 catalyzes oxidation of tryptophan to form N-formyl kynurenine, N-formyl kynurenine is subsequently hydrolyzed by trichloroacetic acid to form kynurenine, and kynurenine further reacts with the Ehrlich reagent to make the solution yellow. The absorbance at 490 nm (OD490) is directly proportional to the activity of IDO1.
The experimental methods are summarized as follows:
The reaction buffer was 50 mM 2-(N-morpholine)ethanesulfonic acid-hydrate (Sigma, Cat. No. 69889); the full-length human recombinant IDO1 protein was purchased from the Tsinghua Protein Research Technology Center and diluted to a 33.6 ng/μL enzyme solution with the reaction buffer; the substrate solution was prepared with the reaction buffer containing 20 mM vitamin C (Sigma, Cat. No. A5960), 150 μM L-tryptophan (Sigma, Cat. No. T0254), 2250 UI/mL catalase (Sigma, Cat. No. C30), and 10 μM methylene blue (Sigma, Cat. No. 28514); the reaction termination solution was 30% (mass/volume) trichloroacetic acid (Sigma, Cat. No. T9159) aqueous solution; the Ehrlich reagent was 2% p-dimethylaminobenzaldehyde (Sigma, Cat. No. 156477) acetic acid (Macklin, Cat. No. A801295) solution.
A compound was dissolved in DMSO (Sigma, Cat. No. D5879) and diluted to 1 mM, then serially diluted 3-fold with DMSO to a minimum concentration of 50.8 nM, and each concentration was further diluted 25-fold with the reaction buffer. If a compound's IC50 value was very low, the initial concentration of the compound was decreased.
A 10-μL compound solution and a 10-μL enzyme solution were added to a 96-well plate (Sigma, Cat. No. CLS3695), mixed well and incubated at room temperature. After 15 min, a 20-μL substrate solution was added and incubated at 60° C. after mixing for 30 min. The reaction plate was equilibrated to room temperature and 60 μL of the Ehrlich reagent was added. After incubation for 15 min, OD490 of each well was measured.
In this experiment, OD490 without enzyme was referred as OD490100% inhibition, and OD490 with enzyme added but without compound was referred as OD4900% inhibition.
as §1

Assay [3] deals with CT26 tumors. Particulars: repeated doses; cited from earlier work.
The target in assay [4] is plasma IDO1 (Mus musculus (Mouse), UniProt P28776). Particulars: nude mice, single dose; at the level of IDO-deficient mice; cited from earlier work.
Sequence of plasma IDO1 (P28776 whole entry): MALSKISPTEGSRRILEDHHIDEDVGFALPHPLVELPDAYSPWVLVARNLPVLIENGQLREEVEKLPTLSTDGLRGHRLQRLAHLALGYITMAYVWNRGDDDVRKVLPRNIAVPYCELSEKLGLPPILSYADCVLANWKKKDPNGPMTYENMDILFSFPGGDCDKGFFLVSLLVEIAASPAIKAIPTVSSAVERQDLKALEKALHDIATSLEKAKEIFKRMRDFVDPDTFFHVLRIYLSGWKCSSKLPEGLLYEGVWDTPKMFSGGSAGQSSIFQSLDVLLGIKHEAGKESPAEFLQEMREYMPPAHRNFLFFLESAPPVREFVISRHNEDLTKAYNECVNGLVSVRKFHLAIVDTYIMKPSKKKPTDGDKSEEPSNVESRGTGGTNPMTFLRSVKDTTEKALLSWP

Sequence of full-length human recombinant IDO1 protein (P14902 whole entry): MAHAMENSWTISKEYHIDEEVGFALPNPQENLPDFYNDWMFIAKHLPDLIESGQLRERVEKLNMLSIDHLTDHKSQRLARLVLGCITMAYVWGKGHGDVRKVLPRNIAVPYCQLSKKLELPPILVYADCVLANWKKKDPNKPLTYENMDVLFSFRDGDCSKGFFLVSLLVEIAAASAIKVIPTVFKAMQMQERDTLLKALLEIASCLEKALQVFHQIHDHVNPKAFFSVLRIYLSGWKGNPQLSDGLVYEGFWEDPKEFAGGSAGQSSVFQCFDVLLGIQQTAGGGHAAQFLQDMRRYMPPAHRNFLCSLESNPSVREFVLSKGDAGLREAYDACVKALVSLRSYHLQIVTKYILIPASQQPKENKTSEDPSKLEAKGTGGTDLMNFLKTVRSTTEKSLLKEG
Sequence of indoleamine 2,3-dioxygenase (IDO) in Hela cells (P14902 whole entry): as above

In the case of `N#Cc1ccc(NC(=O)Nc2c(-c3cccc(F)c3)ccc3cncn23)cc1` [Compound 22, 1-(4-cyanophenyl)-3-(6-(3-fluorophenyl)imidazo[1,5-a]pyridin-5-yl)urea], the figures for the IC50 in assay [1] and in assay [2] were below 1 µM and below 0.25 µM, respectively. In the same order, the values of `O=C(Cc1c(-c2ccccc2)ccc2cncn12)Nc1ccc(C(=O)NCCCN2CCOCC2)cc1` [Compound 50, N-(3-morpholinopropyl)-4-(2-(6-phenylimidazo[1,5-a]pyridin-5-yl)acetamido)benzamide] are below 1 µM and below 0.25 µM. For `N#Cc1ccc(NC(=O)Nc2c(-c3ccccc3F)ccc3cncn23)cc1` [Compound 23, 1-(4-cyanophenyl)-3-(6-(2-fluorophenyl)imidazo[1,5-a]pyridin-5-yl)urea], in that order: below 1 µM and below 0.25 µM. For `N#Cc1ccc(NC(=O)Nc2c(-c3ccccc3)ccc3cncn23)cc1` [Compound 17, 1-(4-cyanophenyl)-3-(6-phenylimidazo[1,5-a]pyridin-5-yl)urea], in that order: below 1 µM and below 0.25 µM. As for `O=C(Cc1c(-c2ccccc2)ccc2cncn12)Nc1cc[nH]n1` [Compound 53, 2-(6-phenylimidazo[1,5-a]pyridin-5-yl)-N-(1H-pyrazol-3-yl)acetamide], the IC50 (commonly the concentration at which inhibition is half-maximal) in assay [1] is 1 to 10 µM; in assay [2], below 0.25 µM.

As for `O=C(Cc1c(-c2ccccc2)ccc2cncn12)Nc1cn[nH]c1` [Compound 54, 2-(6-phenylimidazo[1,5-a]pyridin-5-yl)-N-(1H-pyrazol-4-yl)acetamide], the concentration for half-maximal inhibition (IC50) in assay [1] was in the range of 1 to 10 µM; in assay [2], 0.25 to 1.5 µM. For `N#Cc1ccc(NC(=O)Nc2c(Cl)ccc3cncn23)cc1` [Compound 19, 1-(6-chloroimidazo[1,5-a]pyridin-5-yl)-3-(4-cyanophenyl)urea], in that order: 1 to 10 µM and below 0.25 µM. For `O=C(Cc1c(-c2ccccc2)ccc2cncn12)Nc1ccc(-c2cn[nH]c2)cc1` [Compound 51, N-(4-(1H-pyrazol-4-yl)phenyl)-2-(6-phenylimidazo[1,5-a]pyridin-5-yl)acetamide], the IC50 in assay [1] was below 1 µM; in assay [2], below 0.25 µM. On to `N#Cc1ccc(NC(=O)C(O)c2c(-c3ccccc3)ccc3cncn23)cc1` (stereo not drawn) [Compound 64, N-(4-cyanophenyl)-2-hydroxy-2-(6-phenylimidazo[1,5-a]pyridin-5-yl)acetamide], for which the IC50 in assay [1] is below 1 µM.

Turning to `N#Cc1ccc(NC(=O)Cc2c(-c3ccccc3)ccc3cncn23)cc1` [Compound 37, N-(4-cyanophenyl)-2-(6-phenylimidazo[1,5-a]pyridin-5-yl)acetamide], the 50% inhibitory concentration (IC50) in assay [1] was below 1 µM; in assay [2], below 0.25 µM. For `O=C(Cc1c(-c2ccccc2)ccc2cncn12)Nc1ccc(C(=O)NCCN2CCOCC2)cc1` [Compound 49, N-(2-morpholinoethyl)-4-(2-(6-phenylimidazo[1,5-a]pyridin-5-yl)acetamido)benzamide], the half-inhibitory concentration (IC50) in assay [1] was below 1 µM; in assay [2], below 0.25 µM. Take `NS(=O)(=O)NCCNc1nonc1C(=NO)Nc1ccc(F)c(Br)c1` [INCB-024360]: in assay [3], the “expansion of CT26 tumors” value is “prevented the expansion of CT26 tumors”. Also, in assay [4], the “activity of plasma IDO1” value was “effectively inhibit the activity of plasma IDO1”.

As for `N#Cc1ccc(NC(=O)Nc2c(-c3ccc(F)cc3)ccc3cncn23)cc1` [Compound 21, 1-(4-cyanophenyl)-3-(6-(4-fluorophenyl)imidazo[1,5-a]pyridin-5-yl)urea], the IC50 in assay [1] is 1 to 10 µM; in assay [2] it was 0.25 to 1.5 µM. For `N#Cc1ccc(NC(=O)Nc2c(C3=CCCC3)ccc3cncn23)cc1` [Compound 24, 1-(4-cyanophenyl)-3-(6-(cyclopent-1-en-1-yl)imidazo[1,5-a]pyridin-5-yl)urea], in that order: 1 to 10 µM and below 0.25 µM.
